In patent US12570614B2, “Phenyl amino pyrimidine compounds and uses thereof” (GlaxoSmithKline LLC, priority 2007, dated 2026):
Entries after “also recorded” stand apart in the source; their conditions may differ.

Key:
[1] = test system: BaF3 wild-type cells; experiment: Cellular screening, BaF3 wild-type cells (Alamar Blue); assay type: cell-based; conditions: Mus musculus, 48-72 hr incubation, read-out: BAF3wt_IC50_μM
Description: (§1) For screening purposes, compounds were diluted in 96 well plates at a concentration of 20 μM. Plates were warmed at 37° C. for 30 minutes before the assay was performed.
(§2) The growth factor dependent myelomonocytic cell line BaF3 bearing the pTET-off plasmid (Clontech) was transfected with either pTELJAK2 or pTELJAK3, and the transfected cells were selected for growth-factor independent cell growth. The BaF3 wild-type cells were cultured in DMEM containing 10% FCS, 10% WEHI 3B conditioned medium. The BaF3 TELJAK cells ([…]) were cultured in DMEM 10% Tet-System Approved FBS (without WEHI 3B conditioned medium).
(§3) Cell suspensions were prepared by harvesting cells from culture (the cells used in this test were in late log phase growth with high viability.) Cells were diluted in the appropriate growth medium, as described above, to 1.1× final concentration (from 50,000 cell/mL to 200,000 cell/mL, depending on cell line).
(§4) Compounds to be tested were added (10 μL, 10× final concentration) to a flat bottomed 96-well plate. The cellular suspension (90 μL per well) was then added, and the plate incubated for 48-72 hr at 37° C., 5% CO2. Alamar Blue 10 μL per well was added and the plates returned to the incubator for a further 4-6 hours. The plates were then read at 544 nm.
(§5) Result are given in table 2 where +++ is <1 μM, ++ is <5 μM and + is <20 μM

[2] = test system: BaF3 TELJAK cells (BafT_J2); experiment: Cellular screening, BaF3 TELJAK2 cells (Alamar Blue); assay type: cell-based; conditions: Mus musculus, BaF3; 48-72 hr incubation; read-out: BafT_J2_IC50_μM
Description: as §1
A TEL/Jak2 fusion was generated by digestion of the TELPCR product with BamH I/Sal I restriction enzymes, digestion of the JAK2 PCR product with Sal I/Not I restriction enzymes, followed by ligation and subcloning of the ligation product into the mammalian expression Vector pTRE 2 (Clontech), which was prepared by digestion with BamH I—Not I restriction enzymes, to give the TEL/Jak2 fusion plasmid pTELJAK2.
as §2, §3
as §4, with “hours.” for “hours. The plates were then read at 544 nm.”
as §5

[3] = test system: IL-3 induced STAT5 phosphorylation in BaF3 cells; experiment: Western blot of IL-3 induced STAT5 phosphorylation in BaF3 cells; assay type: cell-based, murine; conditions: 2 hours compound, mouse IL-3 5 ng/ml 15 minutes
Description: The Western blots were treated with a STAT5 phospho-specific antibody and exposed to film for 5 minutes (top blot) and 1 minute (middle blot).
The murine pro-B cell line BaF3 was routinely maintained in RPMI 1640 media containing 10% FCS. On the day of the experiment, cells were washed twice in PBS, and resuspended in RPMI 1640 media containing 0.1% FCS. […] Mouse IL-3 was then added to cells at a final concentration of 5 ng/ml for 15 minutes. Cells were then placed on ice and washed twice in ice-cold PBS. Washed cell pellets were snap-frozen in liquid nitrogen and stored at −80° C.
Cell pellets were lysed on ice in RIPA buffer, and lysates clarified by centrifugation (20,000×g, 4° C., 5 min). The protein concentration of lysates was determined by the Bradford method, and equal amounts of protein (60 μg/lane) were separated by SDS-PAGE. Protein was then transferred to PVDF, and Western blotting performed using an antibody that specifically recognizes STAT5 phosphorylated at tyrosine 694. The membrane was then stripped and reprobed with an antibody that recognizes total STAT5 protein.

[4] = test system: STAT5 phosphorylation in HEL 92.1.7 cells; experiment: Intracellular flow cytometric (FACS) analysis of STAT5 phosphorylation in HEL cells; assay type: cell-based, human; conditions: HEL 92.1.7 cells, 0.25, 0.5, 1, or 2 μM, 2 hours
Description: After treatment the cells were stained with mouse monoclonal anti-STAT5 (Y694) PE antibody and analyzed using fluorescence activated cell sorting (FACS). The histograms are shaded according to the fold change in median fluorescence relative to the isotype control (Isocont lane in clear outline).
The human erythroleukemic cell line, HEL 92.1.7 (ATCC, TIB-180), was grown in RPMI 1640 containing 10% PCS supplemented with 1 mM sodium pyruvate. For phosphor-STAT 5 determination, HEL cells were grown in RPMI 1640+1% PCS for 18 hours at 37° C. and 2×10^5 cells per assay point were exposed to DMSO/test compounds for 2 hours at 37° C. The cells were centrifuged at 1300 rpm for 3 minutes and fixed in paraformaldehyde (2% final concentration) for 15 minutes at 37° C. After centrifugation, cells were permeabilized in 90% methanol at 4° C. for 30 minutes. […]
Staining proceeded for 1 hour at room temperature in the dark, followed by 3 washes in PBS-2% FCS. […] The median fluorescence intensity (MFI) was used to determine fold change upon treatment of cells with specific inhibitor compounds, calculated as the MFIstimulated/MFIunstimulated ratio for the phosphospecific antibody fluorescence channel (FL2).

N#CCNC(=O)c1ccc(-c2ccnc(Nc3ccc(N4CCOCC4)cc3)n2)cc1 [Compound 3, N-(cyanomethyl)-4-(2-(4-morpholinophenyl-amino)pyrimidin-4-yl)benzamide]
IC50 [1]: < 5 µM | IC50 [2]: < 1 µM | effect on IL-3 induced STAT5 phosphorylation (Western blot) [3]: dose-dependent effect; also recorded: decrease in STAT5 phosphorylation | effect on STAT5 phosphorylation (FACS) [4]: dose-dependent effect
